# Read-outs that look alike come from different tables or passages of the source.
# How the values were obtained:
# [1] = system: E. coli KA797 cells carrying NmcA position 105 library; assay type: cell-based
# [2] = system: E. coli KA797 cells carrying pUK21 with NmcA (pelB/Sec); experiment: microbe, parasite or virus in culture; assay type: cell-based
# [3] = system: E. coli KA797 cells carrying pUK21 vector without the β-lactamase gene; experiment: microbe, parasite or virus in culture; assay type: cell-based; details: Escherichia coli
# [4] = system: E. coli KA797 cells carrying TEM-1 position 105 library; assay type: cell-based; details: for Fi CEF AVG: average of replicates
# [5] = system: E. coli KA797 cells carrying BlaC position 105 library; assay type: cell-based, Escherichia coli; details: for Fi CEF AVG / Fi AVG (average fitness): average of replicates; for Fi CEF 2 / WT abs Fi 2: replicate 2
# [6] = system: E. coli KA797 cells carrying pUK21 with BlaC WT (Tat); experiment: microbe, parasite or virus in culture; assay type: cell-based
# [7] = system: E. coli KA797 cells carrying CTX-M-14 position 105 library; assay type: cell-based
# [8] = system: E. coli KA797 cells carrying pUK21 with CTX-M-14 WT (Tat); experiment: microbe, parasite or virus in culture; assay type: cell-based
# [9] = system: E. coli KA797 cells carrying pUK21 with TEM-1 WT (Sec); experiment: microbe, parasite or virus in culture; assay type: cell-based; details: in combination with 100 μg/ml carbenicillin
# [10] = Escherichia coli, antibiotic alone
# [11] = in combination with 100 μg/ml carbenicillin
smiles,measurement,setting,value
CO/N=C(\C(=O)N[C@@H]1C(=O)N2C(C(=O)O)=C(CSc3nc(=O)c(=O)[nH]n3C)CS[C@H]12)c1csc(N)n1 [ceftriaxone],Fi AVG (average fitness of replicates),[1]; NmcA AA 105 Asp,0.078
same,Fi AVG (average fitness of replicates),[1]; NmcA AA 105 Cys,0.046
same,Fi AVG (average fitness of replicates),[1]; NmcA AA 105 Glu,0.057
same,Fi AVG (average fitness of replicates),[1]; NmcA AA 105 Lys,0.077
same,Fi AVG (average fitness of replicates),[1]; NmcA AA 105 Phe,0.046
same,Fi AVG (average fitness of replicates),[1]; NmcA AA 105 Pro,0.055
same,Fi AVG (average fitness of replicates),[1]; NmcA AA 105 Trp,0.226
same,Significance of average fitness,[1]; NmcA AA 105 Trp,+
same,WT abs Fi 1 (absolute fitness),"[1]; NmcA WT, replicate 1",0.029
same,WT abs Fi 2 (absolute fitness),"[1]; NmcA WT, replicate 2",-0.00378
same,WT abs Fi 3 (absolute fitness),"[1]; NmcA WT, replicate 3",-0.101
same,MIC,[2]; [10],0.2 µg/mL
same,MIC,[3],0.1 µg/mL
same,Fi CEF 2,"[4]; AA 105 Ala, replicate 2",-0.112
same,Fi CEF 3,"[4]; AA 105 Ala, replicate 3",0.013
same,Fi CEF 2,"[4]; AA 105 Asn, replicate 2",-0.107
same,Fi CEF 3,"[4]; AA 105 Asn, replicate 3",-0.034
same,Fi CEF 1,"[4]; AA 105 Asp, replicate 1",0.596
same,Fi CEF AVG,[4]; AA 105 Cys,0.087
same,Fi CEF 1,"[4]; AA 105 Cys, replicate 1",0.906
same,Fi CEF AVG,[4]; AA 105 Gln,0.078
same,Fi CEF 1,"[4]; AA 105 Gln, replicate 1",0.356
same,Fi CEF 2,"[4]; AA 105 Gln, replicate 2",-0.028
same,Fi CEF 3,"[4]; AA 105 Gln, replicate 3",-0.095
same,Fi CEF 1,"[4]; AA 105 Glu, replicate 1",0.340
same,Fi CEF 2,"[4]; AA 105 Glu, replicate 2",-0.099
same,Fi CEF AVG,[4]; AA 105 Gly,0.067
same,Fi CEF 1,"[4]; AA 105 Gly, replicate 1",0.338
same,Fi CEF 2,"[4]; AA 105 Gly, replicate 2",-0.077
same,Fi CEF 3,"[4]; AA 105 Gly, replicate 3",-0.061
same,Fi CEF AVG,[4]; AA 105 Leu,0.072
same,Fi CEF 1,"[4]; AA 105 Leu, replicate 1",0.332
same,Fi CEF 2,"[4]; AA 105 Leu, replicate 2",0.047
same,Fi CEF AVG,[4]; AA 105 Lys,0.057
same,Fi CEF 3,"[4]; AA 105 Lys, replicate 3",0.102
same,Fi CEF AVG,[4]; AA 105 Phe,0.182
same,Fi CEF 2,"[4]; AA 105 Phe, replicate 2",0.022
same,Fi CEF 3,"[4]; AA 105 Phe, replicate 3",0.240
same,Fi CEF AVG,[4]; AA 105 Pro,0.130
same,Fi CEF 1,"[4]; AA 105 Pro, replicate 1",0.375
same,Fi CEF 2,"[4]; AA 105 Pro, replicate 2",-0.060
same,Fi CEF 3,"[4]; AA 105 Pro, replicate 3",0.074
same,Fi CEF AVG,[4]; AA 105 Ser,0.105
same,Fi CEF 3,"[4]; AA 105 Ser, replicate 3",0.208
same,Fi CEF AVG,[4]; AA 105 Trp,0.125
same,Fi CEF 1,"[4]; AA 105 Trp, replicate 1",0.969
same,Fi CEF 2,"[4]; AA 105 Tyr, replicate 2",0.000
same,Fi CEF 3,"[4]; AA 105 Tyr, replicate 3",0.000
same,WT abs Fi 1,"[4]; absolute fitness of TEM-1 WT, CEF, replicate 1",-0.283
same,WT abs Fi 2,"[4]; absolute fitness of TEM-1 WT, CEF, replicate 2",0.276
same,WT abs Fi 3,"[4]; absolute fitness of TEM-1 WT, CEF, replicate 3",0.176
same,Fi CEF AVG,"[5]; AA 105 Arg, ceftriaxone",0.035
same,Fi CEF 1,"[5]; AA 105 Arg, ceftriaxone, replicate 1",0.040
same,Fi CEF 2,"[5]; AA 105 Arg, ceftriaxone",0.029
same,Fi CEF AVG,"[5]; AA 105 Cys, ceftriaxone",0.035
same,Fi CEF 1,"[5]; AA 105 Cys, ceftriaxone, replicate 1",0.020
same,Fi CEF 2,"[5]; AA 105 Cys, ceftriaxone",0.049
same,Fi CEF 2,"[5]; AA 105 Gly, ceftriaxone",-0.00224
same,Fi CEF AVG,"[5]; AA 105 His, ceftriaxone",0.032
same,Fi CEF 1,"[5]; AA 105 His, ceftriaxone, replicate 1",0.007
same,Fi CEF 2,"[5]; AA 105 His, ceftriaxone",0.057
same,Fi CEF AVG,"[5]; AA 105 Ile (WT), ceftriaxone",0.000
same,Fi CEF 1,"[5]; AA 105 Ile (WT), ceftriaxone, replicate 1",0.000
same,Fi CEF 2,"[5]; AA 105 Ile (WT), ceftriaxone",0.000
same,Fi CEF AVG,"[5]; AA 105 Leu, ceftriaxone",0.017
same,Fi CEF 1,"[5]; AA 105 Leu, ceftriaxone, replicate 1",0.023
same,Fi CEF 2,"[5]; AA 105 Leu, ceftriaxone",0.011
same,Fi CEF AVG,"[5]; AA 105 Lys, ceftriaxone",-0.009
same,Fi CEF 2,"[5]; AA 105 Lys, ceftriaxone",-0.009
same,Fi CEF AVG,"[5]; AA 105 Met, ceftriaxone",0.036
same,Fi CEF 1,"[5]; AA 105 Met, ceftriaxone, replicate 1",0.064
same,Fi CEF 2,"[5]; AA 105 Met, ceftriaxone",0.008
same,Fi CEF AVG,"[5]; AA 105 Phe, ceftriaxone",0.008
same,Fi CEF 1,"[5]; AA 105 Phe, ceftriaxone, replicate 1",-0.000834
same,Fi CEF 2,"[5]; AA 105 Phe, ceftriaxone",0.017
same,Fi CEF AVG,"[5]; AA 105 Ser, ceftriaxone",-0.011
same,Fi CEF 1,"[5]; AA 105 Ser, ceftriaxone, replicate 1",-0.00266
same,Fi CEF AVG,"[5]; AA 105 Trp, ceftriaxone",0.038
same,Fi CEF 1,"[5]; AA 105 Trp, ceftriaxone, replicate 1",0.042
same,Fi CEF 2,"[5]; AA 105 Trp, ceftriaxone",0.034
same,Fi CEF 1,"[5]; AA 105 Val, ceftriaxone, replicate 1",0.004
same,WT abs Fi 2,"[5]; WT (Ile 105) absolute fitness, ceftriaxone",-0.008
same,MIC,[6]; [10],0.2 µg/mL
same,Significance of average fitness,[7]; CTX-M-14 AA 105 Ala,-
same,Significance of average fitness,[7]; CTX-M-14 AA 105 Arg,-
same,Significance of average fitness,[7]; CTX-M-14 AA 105 Asn,-
same,Significance of average fitness,[7]; CTX-M-14 AA 105 Asp,-
same,Significance of average fitness,[7]; CTX-M-14 AA 105 Cys,-
same,Significance of average fitness,[7]; CTX-M-14 AA 105 Gln,-
same,Significance of average fitness,[7]; CTX-M-14 AA 105 Glu,-
same,Significance of average fitness,[7]; CTX-M-14 AA 105 Gly,-
same,Significance of average fitness,[7]; CTX-M-14 AA 105 His,-
same,Significance of average fitness,[7]; CTX-M-14 AA 105 Ile,-
same,Significance of average fitness,[7]; CTX-M-14 AA 105 Leu,-
same,Significance of average fitness,[7]; CTX-M-14 AA 105 Lys,-
same,Significance of average fitness,[7]; CTX-M-14 AA 105 Met,-
same,Significance of average fitness,[7]; CTX-M-14 AA 105 Phe,-
same,Significance of average fitness,[7]; CTX-M-14 AA 105 Pro,-
same,Significance of average fitness,[7]; CTX-M-14 AA 105 Ser,-
same,Significance of average fitness,[7]; CTX-M-14 AA 105 Thr,-
same,Significance of average fitness,[7]; CTX-M-14 AA 105 Trp,+
same,Significance of average fitness,[7]; CTX-M-14 AA 105 Val,-
same,"WT abs Fi 1 (absolute fitness of wild type, Replicate 1)",[7]; CTX-M-14 WT (Tyr 105),0.241
same,"WT abs Fi 2 (absolute fitness of wild type, Replicate 2)",[7]; CTX-M-14 WT (Tyr 105),0.256
same,MIC,[8]; [10],1600 µg/mL
CC1(C)[C@H](C(=O)O)N2C(=O)C[C@H]2S1(=O)=O [sulbactam],MIC of inhibitor,[2]; in combination with 25 μg/ml carbenicillin,32 µg/mL
same,Fi AVG (average fitness),"[5]; AA 105 Ala (BlaC I105A), relative to WT Ile",-0.022
same,Fi AVG (average fitness),"[5]; AA 105 Arg (BlaC I105R), relative to WT Ile",-0.000687
same,Fi AVG (average fitness),"[5]; AA 105 Asn (BlaC I105N), relative to WT Ile",0.167
same,Fi AVG (average fitness),"[5]; AA 105 Asp (BlaC I105D), relative to WT Ile",-0.060
same,Fi AVG (average fitness),"[5]; AA 105 Cys (BlaC I105C), relative to WT Ile",-0.004
same,Fi AVG (average fitness),"[5]; AA 105 Gln (BlaC I105Q), relative to WT Ile",0.070
same,Fi AVG (average fitness),"[5]; AA 105 Glu (BlaC I105E), relative to WT Ile",0.009
same,Fi AVG (average fitness),"[5]; AA 105 Gly (BlaC I105G), relative to WT Ile",0.023
same,Fi AVG (average fitness),"[5]; AA 105 His (BlaC I105H), relative to WT Ile",0.133
same,Fi AVG (average fitness),"[5]; AA 105 Ile (BlaC WT, reference)",0.000
same,Fi AVG (average fitness),"[5]; AA 105 Leu (BlaC I105L), relative to WT Ile",0.101
same,Fi AVG (average fitness),"[5]; AA 105 Lys (BlaC I105K), relative to WT Ile",0.043
same,Fi AVG (average fitness),"[5]; AA 105 Met (BlaC I105M), relative to WT Ile",-0.015
same,Fi AVG (average fitness),"[5]; AA 105 Phe (BlaC I105F), relative to WT Ile",0.205
same,Fi AVG (average fitness),"[5]; AA 105 Pro (BlaC I105P), relative to WT Ile",0.056
same,Fi AVG (average fitness),"[5]; AA 105 Ser (BlaC I105S), relative to WT Ile",0.083
same,Fi AVG (average fitness),"[5]; AA 105 Thr (BlaC I105T), relative to WT Ile",0.012
same,Fi AVG (average fitness),"[5]; AA 105 Trp (BlaC I105W), relative to WT Ile",0.218
same,Fi AVG (average fitness),"[5]; AA 105 Tyr (BlaC I105Y), relative to WT Ile",0.087
same,Fi AVG (average fitness),"[5]; AA 105 Val (BlaC I105V), relative to WT Ile",0.121
same,WT abs Fi 1,"[5]; absolute fitness of BlaC WT (Ile 105), replicate 1",-0.251
same,WT abs Fi 2,[5]; absolute fitness of BlaC WT (Ile 105),0.228
same,WT abs Fi 3,"[5]; absolute fitness of BlaC WT (Ile 105), replicate 3",-0.183
same,MIC of inhibitor,[6]; [11],4 µg/mL
same,MIC of inhibitor,[9],32 µg/mL
same,MIC of inhibitor,[8]; [11],32 µg/mL
